Test results reported in patent publication US20180014536A1, “AGENT FOR IMPROVING PLANT GROWTH AND METHOD FOR PRODUCING PLANT USING SAME” (FUSO CHEMICAL CO., LTD., priority 2015, published 2018).
Where “and” joins values, the source holds several entries; their conditions need not be identical. Identical values can stand only once.

Legend:
Japanese mustard spinach [1] = assay: Verification experiment 1: high temperature stress, hydroponics (first time); assay type: in vivo; conditions: first time
Protocol: In order to confirm that the above substances have an efficacy such as alleviation of the various stresses on a plant or promotion of plant growth, some verification experiments were conducted. In each of the verification experiments, solutions of the above substances were used. A concentration thereof was in a range from 0.01 ppm to 10 ppm, in order to exert a sufficient efficacy on a plant. This concentration was appropriately adjusted for each verification experiment. For comparison, similar verification experiments using sanguinarine were conducted. In such a verification experiment for an identical purpose to the above, a concentration of sanguinarine was set to be identical to those of the above substances. A verification experiment for high temperature stress was conducted by use of Japanese mustard spinach. The experiment was conducted in the following procedures. […] Note that the agent used was zerumbone.

cucumber [2] = assay: Verification experiment 3: high temperature stress, soil culture; assay type: in vivo; conditions: leaf spray on cotyledons, 10 days cultivation
Protocol: Next, an experiment was conducted to confirm effectiveness of the agent in soil culture of cucumber. First, seeds of cucumber were sown in culture soil thrown into 15 cm-pots (size-5 pots) such that the seeds have spaces therebetween. The culture soil contains, as fertilizer components, 180 mg/L of nitrogen, 120 mg/L of phosphoric acid, and 220 mg/L of potassium. The soil was adjusted at pH 6.0. Watering was performed every early morning. […] A growth difference was observed therebetween.

cucumber [3] = assay: Verification experiment 6: dry stress; assay type: in vivo
Protocol: By use of cucumber, a resistance to dry stress was investigated. 3 ml of Zerumbone was added to cucumber seedlings immediately after germination. The cucumber seedlings were cultivated for 18 days. Meanwhile, another cucumber seedlings were cultivated for 18 days without Zerumbone added thereto. Throughout the cultivation period, a minimum amount of water was given and watering was conducted a minimum number of times so that the soil surface was always kept dry. […] A weight of each of the seedlings was measured. […] Note that, except for the agent, the cultivation conditions used were identical to those of the case where zerumbone was used.

radish sprouts [4] = assay: Verification experiment 7: recovering from dry stress; assay type: in vivo; conditions: among the four samples; sprayed, dried one night, replanted
From the text: Next, radish sprouts seedlings were dried so that the radish sprouts seedlings were severely damaged. Subsequently, adequate water was given to the radish sprouts seedlings. Thus, whether or not the radish sprouts seedlings could be recovered from the damage was verified. First, radish sprouts were immersed in water during night so that germination thereof was promoted. After germination, radish sprouts seedlings planted in vermiculite were impregnated in a nutrient fluid of the Ensi formulation. The radish sprouts seedlings were cultured at 25° C. for five days. A light period during the culture was six hours. Then, zerumbone was sprayed to the radish sprouts seedlings. Meanwhile, water was sprayed to samples used as a control. These radish sprouts seedlings were cultured for one more day. Thereafter, the roots thereof were washed so that the vermiculite was removed therefrom. Then, the roots were wiped with a paper towel. The radish sprouts seedlings were then arranged on a tray, and were dried for one night. The radish sprouts seedlings thus dried were planted in culture soil obtained by blending leaf soil and […] soil in a ratio of 4:6 in a pot.

cucumber [5] = assay: Verification experiment 8: low temperature stress, TTC test; assay type: in vivo
cucumber [6] = assay: Verification experiment 9: organic acid stress, TTC test; assay type: in vivo; conditions: cut leaves immersed in 0.4% acetic acid solution for two hours
cucumber [7] = assay: Verification experiment 10: ammonia stress, TTC test; assay type: in vivo; conditions: cut leaves immersed in 1.0% ammonia solution for three hours
cucumber [8] = assay: Verification experiment 11: ultraviolet ray stress, TTC test; assay type: in vivo; conditions: cut leaves irradiated with ultraviolet ray for 24 hours
cucumber [9] = assay: Verification experiment 12: salt stress, TTC test; assay type: in vivo; conditions: cut leaves immersed in 1.0% saline water for 24 hours
leaf lettuce = assay: Verification experiment 13: hydroponics test on leaf lettuce in vinyl greenhouse in summer; assay type: in vivo
autumn fern [10] = assay: Verification experiment 14: high temperature stress, Pteridophyta, TTC test; assay type: in vivo; conditions: cut leaves immersed in tap water of 45° C. for 18 hours
Protocol: As a Pteridophyta, autumn fern was used, which is a representative Pteridophyta often found in, […] bright forest. Verification experiments for various stresses were conducted thereon. The experiments were conducted in the following procedures. […] Meanwhile, the leaf surfaces of the control sample were sprayed only with water. After the spraying onto the leaf surfaces, the autumn fern seedlings were cultivated at 25° C. for one day. The leaves were cut in a suitable size, and were then subjected to various stresses. Then, cell activities of the samples were determined by TTC test. The leaves that were cut in the suitable size were immersed in tap water of 45° C. for 18 hours. On such leaves, TTC test was conducted.

autumn fern [11] = assay: Verification experiment 15: organic acid stress, Pteridophyta, TTC test; assay type: in vivo; conditions: cut leaves immersed in 0.4% acetic acid solution for three hours
autumn fern [12] = assay: Verification experiment 16: ammonia stress, Pteridophyta, TTC test; assay type: in vivo; conditions: cut leaves immersed in 1.0% ammonia solution for 48 hours
racomitrium moss [13] = assay: Verification experiment 17: high temperature stress, Bryophyta, TTC test; assay type: in vivo; conditions: samples immersed in tap water of 45° C. for 18 hours
Protocol: As a Bryophyta, racomitrium moss was used, which is a Bryophyta widely used for greening a park, a rooftop, and a garden. Verification experiments for various stresses were conducted thereon. The experiments were conducted in the following procedures. […] Meanwhile, the control sample was sprayed only with water. After the spraying, the racomitrium mosses were cultivated at 25° C. for one day. Then, the samples were subjected to various stresses. Thus, cell activities of the samples were determined by TTC test. […] On such samples, TTC test was conducted.

racomitrium moss [14] = assay: Verification experiment 18: organic acid stress, Bryophyta, TTC test; assay type: in vivo; conditions: samples immersed in 0.4% acetic acid solution for three hours
racomitrium moss [15] = assay: Verification experiment 19: ammonia stress, Bryophyta, TTC test; assay type: in vivo; conditions: samples immersed in 1.0% ammonia solution for 48 hours
radish sprouts [16] = assay: Verification experiment 4: acid stress (nitric acid); conditions: leaf spray, then immersed in pH 2.5 acid solution for one minute
From the text: By use of radish sprouts, a resistance to acid stress caused by nitric acid was investigated.
Zerumbone was sprayed onto the leaf surfaces of the cotyledons of radish sprouts seedlings three to four days after germination, and the seedlings were then cultivated for several days. Meanwhile, only water was sprayed onto the leaf surfaces of another radish sprouts seedlings, and the seedlings were then cultivated for several days. The radish sprouts seedlings thus cultivated were immersed in a pH 2.5 acid solution for one minute.

radish sprouts [17] = assay: Verification experiment 5: alkaline stress (potassium hydroxide); conditions: leaf spray, then immersed in pH 9.0 solution
From the text: Next, by use of radish sprouts, a resistance to alkaline stress caused by potassium hydroxide was investigated.
Zerumbone was sprayed onto the leaf surfaces of the cotyledons of radish sprouts seedlings three to four days after germination, and the seedlings were then cultivated for several days. Meanwhile, only water was sprayed onto the leaf surfaces of another radish sprouts seedlings, and the seedlings were then cultivated for several days. The radish sprouts seedlings thus cultivated were immersed in a pH 9.0 acid solution.

Japanese mustard spinach [18] = assay: Verification experiment 2: high temperature and low sunshine stress, hydroponics (second time-B)
Japanese mustard spinach [19] = assay: Verification experiment 2: high temperature stress, hydroponics, plenty of sunlight (second time-A)
[20] = leaf lettuce, summer greenhouse hydroponics
[21] = leaf lettuce, summer greenhouse hydroponics, listed as zerumbone

In the case of `C/C1=C\CC(C)(C)/C=C/C(=O)/C(C)=C/CC1` [Zerumbone, zerumbone], the “Average” value (Japanese mustard spinach [1]; average weight of 10 samples) is reported as 1.760 g, the “weights greater than those of the control samples” value (Japanese mustard spinach [1]; average weights compared) is reported as “approximately 15%” and the “Growth ratio (%)” value (Japanese mustard spinach [1]; control = 100.0) is reported as 115.4%. For the same compound, the “Weight of 10 samples” value (Japanese mustard spinach [1]; dry weight of 10 seedlings, leaf spray, nine days culture, maximum temperature 30-43 °C, plenty of sunlight) was 1.729 g and 1.732 g and 1.787 g and 1.792 g, the “growth of cucumber seedlings (FIG. 1)” value (cucumber [2]) was “grown greatly” and the “average weight greater than the control samples” value (cucumber [3]; 18 days dry stress) was “approximately 13%”. The “growth compared with control (FIG. 2)” value (cucumber [3]; after 18-day cultivation under dry stress) was “grew more greatly than the control”, the “Average” value (cucumber [3]; average seedling weight after 18 days dry stress) was 3.00 g and the “Weight comparison (%)” value (cucumber [3]; control = 100.0) was 113.0%. For the same compound, the “samples recovered from the dry state” value (radish sprouts [4]) was “three”, the “TTC test dyeing (cell activity)” value (cucumber [5]; cut leaves left two days in dark place at 0° C.) was “dyed deeply” and the “TTC test dyeing (cell activity)” value (cucumber [5]; cut leaves left two days in dark place at −10° C.) was “dyed slightly”. The “TTC test dyeing of leaves (cell activity)” value (cucumber [5]; remaining plants cultivated two days under fluorescent lamp at 4° C.) was “dyed deeply except for their peripheries”, the “cells having an activity (TTC test)” value (cucumber [6]) was “approximately half of the cells” and the “cells having an activity (TTC test)” value (cucumber [7]) was “a part of the cells”. The “cells having an activity (TTC test)” value (cucumber [8]) was “approximately half of the cells”, the “cells alive (TTC test)” value (cucumber [9]) was “most of the cells” and the “Growing speed: Harvest timing” value (leaf lettuce; day on which harvest size reached 150 g to 180 g) was 30th day after day after germination. For the same compound, the “Disease resistance: Powdery mildew” value (leaf lettuce; [20]) was “Not occurred”, the “Disease resistance: Root rot” value (leaf lettuce; [20]) was “Not occurred” and the “Physiological disorder (quality): Heterophyll” value (leaf lettuce; [20]) was “Not occurred”. For the same compound, the “Physiological disorder (quality): Root spread condition” value (leaf lettuce; [20]) was “Very good”, the “Physiological disorder (quality): Taste” value (leaf lettuce; [20]) was “No bitterness” and the “Physiological disorder (quality): Tip burn (dead fringes of leaf)” value (leaf lettuce; [20]) was “Not occurred”. The “Physiological disorder (quality): Unproductive growth” value (leaf lettuce; [20]) was “Not occurred”, the “occurrence of a disease (overall)” value (leaf lettuce; [20]) was “occurrence of a disease was not observed” and the “physiological disorder (overall)” value (leaf lettuce; [20]) was “no physiological disorder occurred”. For the same compound, the “Physiological disorder (quality): Root spread condition” value (leaf lettuce; [21]) was “far better than in the sanguinarine test section”, the “Physiological disorder (quality): Taste” value (leaf lettuce; [21]) was “no bitterness” and the “TTC test dyeing (cell activity)” value (autumn fern [10]) was “dyed slightly”. The “TTC test dyeing (cell activity)” value (autumn fern [11]) was “dyed slightly”, the “TTC test dyeing (cell activity)” value (autumn fern [12]) was “dyed slightly” and the “TTC test dyeing (cell activity)” value (racomitrium moss [13]) was “dyed slightly”. The “TTC test dyeing (cell activity)” value (racomitrium moss [14]) was “dyed slightly”, the “TTC test dyeing (cell activity)” value (racomitrium moss [15]) was “dyed slightly” and the withering of seedlings (radish sprouts [16]) was “Slight withering was observed in some portions”. For the same compound, the “resistance to alkaline stress (withering)” value (radish sprouts [17]) was “gives a plant resistance to both acid and alkali”, the “growth better than the growth of the control samples” value (Japanese mustard spinach [18]; Table 3 experiment, almost no sunlight) was “approximately 37%” and the “Growth ratio (%)” value (Japanese mustard spinach [18]; control = 100.0, second time-B) was 136.5%. For the same compound, the “Weight of 10 samples” value (Japanese mustard spinach [18]; dry weight of 10 seedlings, nine days, 30-43 °C, almost no sunlight, second time-B) was 2.137 g and 2.163 g, the “Average” value (Japanese mustard spinach [18]; second time-B) was 2.150 g and the “weights greater than those of the control samples” value (Japanese mustard spinach [19]; Table 2 experiment) was “approximately 17%”. The “Growth ratio (%)” value (Japanese mustard spinach [19]; control = 100.0, second time-A) was 116.7%, the “Weight of 10 samples” value (Japanese mustard spinach [19]; dry weight of 10 seedlings, nine days, 30-43 °C, plenty of sunlight, second time-A) was 2.120 g and 2.176 g and 2.213 g and 2.298 g and the “Average” value (Japanese mustard spinach [19]; second time-A) was 2.202 g.
